Source: PubChem BioAssay (NCI)
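Compound exposure: 48 hours, 5 concentrations, 96-well plates. The concentration for full growth arrest is given as TGI.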

Experiments:
Assay in all cases: NCI-60 cell line screen, 48 h
A498 renal = tested on: A498 renal
SK-MEL-5 melanoma = tested on: SK-MEL-5 melanoma
LOX IMVI melanoma = tested on: LOX IMVI melanoma
UACC-257 melanoma = tested on: UACC-257 melanoma
CCRF-CEM leukemia = tested on: CCRF-CEM leukemia
SF-295 CNS = tested on: SF-295 CNS
OVCAR-3 ovarian = tested on: OVCAR-3 ovarian
SR leukemia = tested on: SR leukemia
OVCAR-5 ovarian = tested on: OVCAR-5 ovarian
RXF 393 renal = tested on: RXF 393 renal
SK-MEL-2 melanoma = tested on: SK-MEL-2 melanoma
SK-MEL-28 melanoma = tested on: SK-MEL-28 melanoma
UO-31 renal = tested on: UO-31 renal
DU-145 prostate = tested on: DU-145 prostate
U251 CNS = tested on: U251 CNS
HCT-15 colon = tested on: HCT-15 colon
NCI-H460 lung = tested on: NCI-H460 lung
ACHN renal = tested on: ACHN renal
HOP-92 NSCLC = tested on: HOP-92 NSCLC
SN12C renal = tested on: SN12C renal
KM12 colon = tested on: KM12 colon
MDA-MB-231 breast = tested on: MDA-MB-231 breast
SF-268 CNS = tested on: SF-268 CNS
SF-539 CNS = tested on: SF-539 CNS
M14 melanoma = tested on: M14 melanoma
PC-3 prostate = tested on: PC-3 prostate
HT29 colon = tested on: HT29 colon
OVCAR-4 ovarian = tested on: OVCAR-4 ovarian
CAKI-1 renal = tested on: CAKI-1 renal
786-0 renal = tested on: 786-0 renal
HOP-62 NSCLC = tested on: HOP-62 NSCLC
TK-10 renal = tested on: TK-10 renal
T-47D breast = tested on: T-47D breast
UACC-62 melanoma = tested on: UACC-62 melanoma
NCI-H226 lung = tested on: NCI-H226 lung
COLO 205 colon = tested on: COLO 205 colon
MCF7 breast = tested on: MCF7 breast
NCI-H522 lung = tested on: NCI-H522 lung
HCT-116 colon = tested on: HCT-116 colon
EKVX NSCLC = tested on: EKVX NSCLC
SK-OV-3 ovarian = tested on: SK-OV-3 ovarian
RPMI-8226 leukemia = tested on: RPMI-8226 leukemia
BT-549 breast = tested on: BT-549 breast
NCI-H23 lung = tested on: NCI-H23 lung
IGROV1 ovarian = tested on: IGROV1 ovarian
HCC-2998 colon = tested on: HCC-2998 colon
A549 NSCLC = tested on: A549 NSCLC
SNB-75 CNS = tested on: SNB-75 CNS
SW-620 colon = tested on: SW-620 colon
OVCAR-8 ovarian = tested on: OVCAR-8 ovarian
K-562 leukemia = tested on: K-562 leukemia
HL-60(TB) leukemia = tested on: HL-60(TB) leukemia
NCI/ADR-RES ovarian = tested on: NCI/ADR-RES ovarian
MOLT-4 leukemia = tested on: MOLT-4 leukemia
MDA-MB-435 = tested on: MDA-MB-435

Measured: TGI

COc1ccc(COCCOCc2nc(C#N)c(N)o2)cc1
75.8 µM: NCI-H522 lung
> 100 µM: all other assays above
